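GI50 marks 50% less growth. TGI denotes the concentration required for complete inhibition of growth.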
Experiments:
Assay in all cases: NCI anticancer screen, dose series, 384-well format
[1] = system: 786-0 renal
[2] = system: A498 renal
[3] = system: A549 NSCLC
[4] = system: ACHN renal
[5] = system: BT-549 breast
[6] = system: CAKI-1 renal
[7] = system: COLO 205 colon
[8] = system: DU-145 prostate
[9] = system: EKVX NSCLC
[10] = system: HCT-15 colon
[11] = system: HL-60(TB) leukemia
[12] = system: HOP-62 NSCLC
[13] = system: HS 578T breast
[14] = system: HT29 colon
[15] = system: IGROV1 ovarian
[16] = system: K-562 leukemia
[17] = system: KM12 colon
[18] = system: M14 melanoma
[19] = system: MALME-3M melanoma
[20] = system: MCF7 breast
[21] = system: MDA-MB-231 breast
[22] = system: MDA-MB-435 melanoma
[23] = system: MDA-MB-468 breast
[24] = system: MOLT-4 leukemia
[25] = system: NCI-H226 lung
[26] = system: NCI-H23 lung
[27] = system: NCI-H322M lung
[28] = system: NCI-H460 NSCLC
[29] = system: NCI-H522 lung
[30] = system: OVCAR-3 ovarian
[31] = system: OVCAR-4 ovarian
[32] = system: OVCAR-5 ovarian
[33] = system: PC-3 prostate
[34] = system: RXF 393 renal
[35] = system: SF-268 CNS
[36] = system: SF-295 CNS
[37] = system: SF-539 CNS
[38] = system: SK-MEL-2 melanoma
[39] = system: SK-MEL-28 melanoma
[40] = system: SK-MEL-5 melanoma
[41] = system: SK-OV-3 ovarian
[42] = system: SN12C renal
[43] = system: SNB-19 CNS
[44] = system: SNB-75 CNS
[45] = system: SR leukemia
[46] = system: SW-620 colon
[47] = system: T-47D breast
[48] = system: TK-10 renal
[49] = system: U251 glioblastoma
[50] = system: UACC-257 melanoma
[51] = system: UACC-62 melanoma
[52] = system: UO-31 renal

## Cc1cccc2nc3cccc(C(=O)NCCNCCNCCNC(=O)c4cccc5nc6cccc(C)c6nc45)c3nc12
[1]
  GI50: < 10 nM
  TGI: 6780 nM
[2]
  GI50: < 10 nM
  TGI: 2230 nM
[3]
  GI50: < 10 nM
  TGI: 1510 nM
[4]
  GI50: < 10 nM
  TGI: 1960 nM
[5]
  GI50: 1320 nM
  TGI: 2780 nM
[6]
  GI50: < 10 nM
  TGI: 3140 nM
[7]
  GI50: < 10 nM
  TGI: 1820 nM
[8]
  GI50: < 10 nM
  TGI: 208 nM
[9]
  GI50: 1230 nM
  TGI: 5680 nM
[10]
  GI50: 21.2 nM
  TGI: > 100000 nM
[11]
  GI50: < 10 nM
  TGI: 154 nM
[12]
  GI50: < 10 nM
  TGI: 1390 nM
[13]
  GI50: 79.6 nM
  TGI: 265 nM
[14]
  GI50: < 10 nM
  TGI: 234 nM
[15]
  GI50: < 10 nM
  TGI: 47700 nM
[16]
  GI50: < 10 nM
  TGI: 1270 nM
[17]
  GI50: < 10 nM
  TGI: 109 nM
[18]
  GI50: < 10 nM
  TGI: 751 nM
[19]
  GI50: 107 nM
  TGI: 1900 nM
[20]
  GI50: < 10 nM
  TGI: 31200 nM
[21]
  GI50: 11.5 nM
  TGI: 628 nM
[22]
  GI50: 133 nM
  TGI: 1900 nM
[23]
  GI50: < 10 nM
  TGI: 1210 nM
[24]
  GI50: < 10 nM
[25]
  GI50: 124 nM
  TGI: 1190 nM
[26]
  GI50: 179 nM
  TGI: 1760 nM
[27]
  GI50: 139 nM
  TGI: 1140 nM
[28]
  GI50: < 10 nM
  TGI: 229 nM
[29]
  GI50: 101 nM
  TGI: 221 nM
[30]
  GI50: < 10 nM
  TGI: 2620 nM
[31]
  GI50: 188 nM
  TGI: 2020 nM
[32]
  GI50: 62.3 nM
  TGI: > 100000 nM
[33]
  GI50: 17.1 nM
  TGI: 2280 nM
[34]
  GI50: < 10 nM
  TGI: 231 nM
[35]
  GI50: 75.7 nM
  TGI: 318 nM
[36]
  GI50: < 10 nM
  TGI: 3080 nM
[37]
  GI50: < 10 nM
  TGI: 454 nM
[38]
  GI50: 71.3 nM
  TGI: 209 nM
[39]
  GI50: 510 nM
  TGI: 2140 nM
[40]
  GI50: < 10 nM
  TGI: 1210 nM
[41]
  GI50: 28.9 nM
  TGI: 3750 nM
[42]
  GI50: 109 nM
  TGI: 300 nM
[43]
  GI50: 245 nM
  TGI: > 100000 nM
[44]
  GI50: 127 nM
  TGI: 316 nM
[45]
  GI50: < 10 nM
[46]
  GI50: < 10 nM
  TGI: 1710 nM
[47]
  GI50: 564 nM
  TGI: 5310 nM
[48]
  GI50: < 10 nM
  TGI: 6440 nM
[49]
  GI50: < 10 nM
  TGI: 1780 nM
[50]
  GI50: 1450 nM
  TGI: 3580 nM
[51]
  GI50: < 10 nM
  TGI: 152 nM
[52]
  GI50: 47 nM
  TGI: 19400 nM

Source: PubChem BioAssay (NCI)
